This is an account of results in patent EP0067612A1, “Penicillin derivatives” (BEECHAM GROUP PLC, priority 1981, dated 1982).

Common to all, as to test: Antibacterial activity, MIC (agar)
What all share (assay type): cell-based

One assay concerns S. pyogenes CN 10. Particulars: Streptococcus pyogenes, CN10. An excerpt: (§1) The antibacterial activities of compounds of the present invention (MIC µg/ml)
Assay [1] has as its system Ps. aeruginosa NCTC 10662. The settings on record: Pseudomonas aeruginosa.
Description: as §1

Another assay concerns P. rettgeri. Particulars: Providencia rettgeri.
Description: as §1

A further assay has as its system S. faecalis I. The settings on record: Enterococcus faecalis.
Description: as §1

Another assay concerns S. marcescens US 32. Particulars: Serratia marcescens, US32.
Description: as §1

The next assay deals with E. coli JT 425. Particulars: Escherichia coli, JT425.
Description: as §1

The test system of another assay is P. mirabilis C 977. Particulars: Proteus mirabilis, C977.
Description: as §1

Another assay deals with S. aureus Russell. Particulars: Staphylococcus aureus.
Description: as §1

The subject of another assay is P. mirabilis 889. Particulars: Proteus mirabilis.
Description: as §1

The subject of another assay is K. aerogenes A. Particulars: Klebsiella aerogenes.
Description: as §1

The next assay deals with E. coli JT 4. The settings on record: Escherichia coli, JT4.
Description: as §1

For a further assay, the system named is S. aureus Oxford. The settings on record: Staphylococcus aureus.
Description: as §1

The test system of another assay is E. cloacae N1. Particulars: Enterobacter cloacae.
Description: as §1

The test system of the next assay is E. coli ESS. Particulars: Escherichia coli.
Description: as §1

A further assay deals with Ps. aeruginosa Dalgleish. The settings on record: Pseudomonas aeruginosa, Ps. aeruginosa Dalgleish 10^-2.
Description: as §1

A further assay has as its system E. coli NCTC 10418. Particulars: Escherichia coli, NCTC10418.
Description: as §1

The next assay concerns N. catarrhalis 1502.
Description: as §1

Where [2] appears, read: NCTC10662, Ps. aeruginosa NCTC 10662.
Where [3] appears, read: NCTC10662, Ps. aeruginosa NCTC 10662 10^-2.

Counter-ions that a name gives are not always drawn.

Take `NS(=O)(=O)c1ccc(Nc2ncc(NC(=O)N[C@@H](C(=O)N[C@@H]3C(=O)N4[C@@H](C(=O)O)CS[C@H]34)c3ccc(O)cc3)c(O)n2)cc1` [Example 4, 6β-[D,2-2-(4-Aminosulphonylanilino)-4-hydroxypyrimidyl-5-aminocarbonylamino}-2-(4-hydroxyphenyl)]acetamido-bisnorpenicillanic acid, sodium salt]: the MIC in the assay with S. pyogenes CN 10 came out at 0.1 µg/mL; in assay [1] (setting [2]) it was 2.5 µg/mL; in assay [1] (setting [3]) it was 0.5 µg/mL; in the assay with P. rettgeri it was 2.5 µg/mL; against S. faecalis I, 25 µg/mL; in the assay on S. marcescens US 32, 1 µg/mL. The MIC against E. coli JT 425 was 2.5 µg/mL; against P. mirabilis C 977, 2.5 µg/mL; with S. aureus Russell, 25 µg/mL; in the assay on P. mirabilis 889, above 100 µg/mL; in the assay on K. aerogenes A, 0.25 µg/mL; with E. coli JT 4 it was 100 µg/mL. For the same compound, the MIC worked out at 2.5 µg/mL against S. aureus Oxford; 2.5 µg/mL with E. cloacae N1; 0.05 µg/mL in the assay on E. coli ESS; 25 µg/mL with Ps. aeruginosa Dalgleish; 0.25 µg/mL against E. coli NCTC 10418; 0.05 µg/mL against N. catarrhalis 1502.

With `NS(=O)(=O)c1ccc(Nc2ncc(NC(=O)N[C@@H](C(=O)N[C@@H]3C(=O)N4[C@@H](C(=O)O)CS[C@H]34)c3ccccc3)c(O)n2)cc1` [Example 3, 6β-[D,2-{2-(4-Aminosulphonylanilino)-4-hvdroxypyrimidyl-5-aminocarbonylamino}-2-phenyl]acetamidobisnor penicillanic acid, sodium salt], the MIC in the assay on S. pyogenes CN 10 was 0.2 µg/mL; in assay [1] (setting [2]), 5 µg/mL; in assay [1] (setting [3]) it was 2.5 µg/mL; against P. rettgeri, 1 µg/mL; with S. faecalis I, 25 µg/mL; against S. marcescens US 32, 2.5 µg/mL. In addition, the minimal inhibitory concentration (MIC) was 5 µg/mL in the assay with E. coli JT 425; 0.2 µg/mL with P. mirabilis C 977; 50 µg/mL in the assay with S. aureus Russell; above 100 µg/mL with P. mirabilis 889; 0.2 µg/mL against K. aerogenes A; above 100 µg/mL against E. coli JT 4. Besides, the minimal inhibitory concentration (MIC) against S. aureus Oxford was determined as 1 µg/mL; in the assay with E. cloacae N1, 1 µg/mL; in the assay on E. coli ESS, 0.05 µg/mL; in the assay on Ps. aeruginosa Dalgleish it was 50 µg/mL; in the assay with E. coli NCTC 10418, 0.5 µg/mL; with N. catarrhalis 1502 it was 0.05 µg/mL.

Broadly, the MIC is the smallest concentration in the dilution series that meets the test's criterion for growth inhibition. The low end stands for greater potency, the high end for weaker potency.
